Assay results from patent publication US6737383B1, “Herbicidal oxadiazolidines” (priority 1999, dated 2004).

Columns and labels:
bedstraw = experiment: Test B pre/postemergence bedstraw; assay type: in vivo, Galium aparine
Procedure, shortened: (§1)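 Herbicidal effect was estimated by eye on a ten-point control scale after plants spent twelve to sixteen days in a greenhouse following soil or foliar treatment. Foliar sprays targeted plants at one to four leaves; all doses were formulated in a non-phytotoxic solvent with surfactant.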

blackgrass = experiment: Test B pre/postemergence blackgrass; assay type: in vivo, Alopecurus myosuroides
Procedure, shortened: as §1

surinam grass = experiment: Test B pre/postemergence surinam grass; assay type: in vivo, Brachiaria decumbens
Procedure, shortened: as §1

cocklebur = experiment: Test B pre/postemergence cocklebur; assay type: in vivo, Xanthium strumarium
Procedure, shortened: as §1

crabgrass = experiment: Test B pre/postemergence crabgrass; assay type: in vivo, Digitaria sanguinalis
Procedure, shortened: as §1

giant foxtail = experiment: Test B pre/postemergence giant foxtail; assay type: in vivo, Setaria faberii
Procedure, shortened: as §1

morningglory = experiment: Test B pre/postemergence morningglory; assay type: in vivo, Ipomoea hederacea
Procedure, shortened: as §1

pigweed = experiment: Test B pre/postemergence pigweed; assay type: in vivo, Amaranthus retroflexus
Procedure, shortened: as §1

soybean = experiment: Test B pre/postemergence soybean; assay type: in vivo, Glycine max
Procedure, shortened: as §1

velvetleaf = experiment: Test B pre/postemergence velvetleaf; assay type: in vivo, Abutilon theophrasti
Procedure, shortened: as §1

wheat = experiment: Test B pre/postemergence wheat; assay type: in vivo, Triticum aestivum
Procedure, shortened: as §1

wild oat = experiment: Test B pre/postemergence wild oat; assay type: in vivo, Avena fatua
Procedure, shortened: as §1

purple nutsedge = experiment: Test B pre/postemergence purple nutsedge; assay type: in vivo, Cyperus rotundus
Procedure, shortened: as §1

rice = experiment: Test B flood test rice; assay type: in vivo, Oryza sativa
Procedure, shortened: (§2)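 Plants were grown to the 2-leaf stage before treatment with test chemical, then held in a greenhouse for twelve to sixteen days. Injury was visually rated against untreated controls on a 0–10 scale, where 0 is no effect and 10 is complete control.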

smallflower flatsedge = experiment: Test B flood test smallflower flatsedge; assay type: in vivo, Cyperus difformis
Procedure, shortened: as §2

bamyardgrass = experiment: Test B flood test barnyardgrass; assay type: in vivo, Echinochloa crus-galli
Procedure, shortened: as §2

[1] = Postemergence, Rate 62 g/ha, scale 0 to 10, 0 is no effect, 10 is complete control
[2] = Postemergence, Rate 125 g/ha, scale of 0 to 10 where 0 is no effect and 10 is complete control
[3] = Preemergence, Rate 62 g/ha, scale 0 to 10 (0 no effect, 10 complete control)
[4] = Preemergence, Rate 125 g/ha, scale of 0 to 10 where 0 is no effect and 10 is complete control
[5] = Preemergence, Rate 250 g/ha, scale 0 to 10 (0 no effect, 10 complete control)
[6] = Preemergence, Rate 500 g/ha, scale of 0 to 10 where 0 is no effect and 10 is complete control
[7] = Postemergence, Rate 250 g/ha, scale of 0 to 10, 0 is no effect, 10 is complete control
[8] = Postemergence, Rate 500 g/ha, scale of 0 to 10 where 0 is no effect and 10 is complete control
[9] = Rate 62 g/ha, flood test species, Pre-emergence, visual evaluation after twelve to sixteen days
[10] = Rate 125 g/ha, under heading Pre-emergence, flood test species, visual evaluation after twelve to sixteen days
[11] = Rate 250 g/ha, Pre-emergence (flood test species), scale 0 to 10, 0 is no effect, 10 is complete control
[12] = Rate 500 g/ha, Pre-emergence section of Table B, 0 to 10 scale (0 no effect, 10 complete control)

With `CCOC(=O)CC(C(=O)OCC)n1c(=O)on(C(=O)N(c2ccc(F)cc2)C(C)C)c1=O` (stereo not shown) [Compound 615] the “Plant response rating, Bedstraw” value (bedstraw; [1]) was 0, the “Plant response rating, Bedstraw” value (bedstraw; [2]) was 0 and the “Bedstraw plant response rating” value (bedstraw; [3]) was 0. The “Bedstraw plant response rating” value (bedstraw; [4]) was 0, the “Plant response rating, Bedstraw” value (bedstraw; [5]) was 0 and the “Bedstraw plant response rating” value (bedstraw; [6]) was 0. For the same molecule, the “Plant response rating, Blackgrass” value (blackgrass; [1]) was 0, the “Plant response rating, Blackgrass” value (blackgrass; [2]) was 0 and the “Blackgrass plant response rating” value (blackgrass; [7]) was 0. The “Plant response rating, Blackgrass” value (blackgrass; [8]) was 0, the “Blackgrass plant response rating” value (blackgrass; [3]) was 0 and the “Blackgrass plant response rating” value (blackgrass; [4]) was 0. For the same molecule, the “Plant response rating, Blackgrass” value (blackgrass; [5]) was 0, the “Blackgrass plant response rating” value (blackgrass; [6]) was 4 and the “Plant response rating, B. signalgrass” value (surinam grass; [1]) was 0. For the same molecule, the “Plant response rating, B. signalgrass” value (surinam grass; [2]) was 0, the “B. signalgrass plant response rating” value (surinam grass; [7]) was 0 and the “Plant response rating, B. signalgrass” value (surinam grass; [8]) was 0. The “B. signalgrass plant response rating” value (surinam grass; [3]) was 0, the “B. signalgrass plant response rating” value (surinam grass; [4]) was 0 and the “Plant response rating, B. signalgrass” value (surinam grass; [5]) was 0. For the same molecule, the “B. signalgrass plant response rating” value (surinam grass; [6]) was 0, the “Plant response rating, Cocklebur” value (cocklebur; [1]) was 0 and the “Plant response rating, Cocklebur” value (cocklebur; [2]) was 0. The “Cocklebur plant response rating” value (cocklebur; [7]) was 0, the “Plant response rating, Cocklebur” value (cocklebur; [8]) was 0 and the “Cocklebur plant response rating” value (cocklebur; [3]) was 0. The “Cocklebur plant response rating” value (cocklebur; [4]) was 0, the “Plant response rating, Cocklebur” value (cocklebur; [5]) was 0 and the “Plant response rating, Cocklebur” value (cocklebur; [6]) was 0. The “Plant response rating, Crabgrass” value (crabgrass; [1]) was 0, the “Plant response rating, Crabgrass” value (crabgrass; [2]) was 0 and the “Crabgrass plant response rating” value (crabgrass; [7]) was 4. The “Crabgrass plant response rating” value (crabgrass; [3]) was 0, the “Crabgrass plant response rating” value (crabgrass; [4]) was 0 and the “Plant response rating, Crabgrass” value (crabgrass; [5]) was 0. The “Plant response rating, Crabgrass” value (crabgrass; [6]) was 0, the “Plant response rating, Giant foxtail” value (giant foxtail; [1]) was 0 and the “Plant response rating, Giant foxtail” value (giant foxtail; [2]) was 0. The “Giant foxtail plant response rating” value (giant foxtail; [7]) was 6, the “Plant response rating, Giant foxtail” value (giant foxtail; [8]) was 6 and the “Giant foxtail plant response rating” value (giant foxtail; [3]) was 0. The “Giant foxtail plant response rating” value (giant foxtail; [4]) was 0, the “Plant response rating, Giant foxtail” value (giant foxtail; [5]) was 0 and the “Plant response rating, Giant foxtail” value (giant foxtail; [6]) was 7. For the same molecule, the “Plant response rating, Morningglory” value (morningglory; [1]) was 0, the “Plant response rating, Morningglory” value (morningglory; [2]) was 1 and the “Morningglory plant response rating” value (morningglory; [7]) was 1. For the same molecule, the “Plant response rating, Morningglory” value (morningglory; [8]) was 1, the “Morningglory plant response rating” value (morningglory; [3]) was 0 and the “Morningglory plant response rating” value (morningglory; [4]) was 0. The “Plant response rating, Morningglory” value (morningglory; [5]) was 0, the “Plant response rating, Morningglory” value (morningglory; [6]) was 0 and the “Plant response rating, Redroot pigweed” value (pigweed; [1]) was 0. For the same molecule, the “Plant response rating, Redroot pigweed” value (pigweed; [2]) was 0, the “Redroot pigweed plant response rating” value (pigweed; [7]) was 0 and the “Plant response rating, Redroot pigweed” value (pigweed; [8]) was 0. The “Redroot pigweed plant response rating” value (pigweed; [3]) was 0, the “Redroot pigweed plant response rating” value (pigweed; [4]) was 0 and the “Plant response rating, Redroot pigweed” value (pigweed; [5]) was 0. For the same molecule, the “Plant response rating, Redroot pigweed” value (pigweed; [6]) was 4, the “Plant response rating, Soybean” value (soybean; [1]) was 1 and the “Plant response rating, Soybean” value (soybean; [2]) was 1. For the same molecule, the “Soybean plant response rating” value (soybean; [7]) was 3, the “Plant response rating, Soybean” value (soybean; [8]) was 3 and the “Soybean plant response rating” value (soybean; [3]) was 0. The “Soybean plant response rating” value (soybean; [4]) was 0, the “Plant response rating, Soybean” value (soybean; [5]) was 0 and the “Plant response rating, Soybean” value (soybean; [6]) was 0. For the same molecule, the “Plant response rating, Velvetleaf” value (velvetleaf; [1]) was 0, the “Plant response rating, Velvetleaf” value (velvetleaf; [2]) was 0 and the “Velvetleaf plant response rating” value (velvetleaf; [7]) was 0. For the same molecule, the “Plant response rating, Velvetleaf” value (velvetleaf; [8]) was 0, the “Velvetleaf plant response rating” value (velvetleaf; [3]) was 0 and the “Velvetleaf plant response rating” value (velvetleaf; [4]) was 0. For the same molecule, the “Plant response rating, Velvetleaf” value (velvetleaf; [5]) was 0, the “Plant response rating, Velvetleaf” value (velvetleaf; [6]) was 0 and the “Plant response rating, Wheat” value (wheat; [1]) was 0. The “Plant response rating, Wheat” value (wheat; [2]) was 0, the “Wheat plant response rating” value (wheat; [7]) was 0 and the “Plant response rating, Wheat” value (wheat; [8]) was 0. The “Wheat plant response rating” value (wheat; [3]) was 0, the “Wheat plant response rating” value (wheat; [4]) was 0 and the “Plant response rating, Wheat” value (wheat; [5]) was 0. For the same molecule, the “Plant response rating, Wheat” value (wheat; [6]) was 0, the “Plant response rating, Wild oats” value (wild oat; [1]) was 0 and the “Plant response rating, Wild oats” value (wild oat; [2]) was 0. The “Wild oats plant response rating” value (wild oat; [7]) was 0, the “Plant response rating, Wild oats” value (wild oat; [8]) was 0 and the “Wild oats plant response rating” value (wild oat; [3]) was 0. The “Wild oats plant response rating” value (wild oat; [4]) was 0, the “Plant response rating, Wild oats” value (wild oat; [5]) was 0 and the “Plant response rating, Wild oats” value (wild oat; [6]) was 0. For the same molecule, the “Plant response rating, Nutsedge” value (purple nutsedge; [1]) was 0, the “Plant response rating, Nutsedge” value (purple nutsedge; [2]) was 0 and the “Nutsedge plant response rating” value (purple nutsedge; [7]) was 0. For the same molecule, the “Nutsedge plant response rating” value (purple nutsedge; [3]) was 0, the “Nutsedge plant response rating” value (purple nutsedge; [4]) was 0 and the “Plant response rating, Nutsedge” value (purple nutsedge; [5]) was 0. For the same molecule, the “Plant response rating, Nutsedge” value (purple nutsedge; [6]) was 0, the “Plant response rating, Rice (0 to 10 scale, 0 is no effect, 10 is complete control)” value (rice; [9]) was 0 and the “Rice plant response rating (0 to 10 scale, 0 is no effect, 10 is complete control)” value (rice; [10]) was 0. For the same molecule, the “Rice plant response rating” value (rice; [11]) was 0, the “Rice plant response rating” value (rice; [12]) was 0 and the “Plant response rating, S. Flatsedge (0 to 10 scale, 0 is no effect, 10 is complete control)” value (smallflower flatsedge; [9]) was 0. For the same molecule, the “S. Flatsedge plant response rating (0 to 10 scale, 0 is no effect, 10 is complete control)” value (smallflower flatsedge; [10]) was 0, the “S. Flatsedge plant response rating” value (smallflower flatsedge; [11]) was 0 and the “S. Flatsedge plant response rating” value (smallflower flatsedge; [12]) was 0. The “Plant response rating, Barnyardgrass (0 to 10 scale, 0 is no effect, 10 is complete control)” value (bamyardgrass; [9]) was 0, the “Barnyardgrass plant response rating (0 to 10 scale, 0 is no effect, 10 is complete control)” value (bamyardgrass; [10]) was 0 and the “Barnyardgrass plant response rating” value (bamyardgrass; [11]) was 0. The “Barnyardgrass plant response rating” value (bamyardgrass; [12]) was 0.
